Legend:
MV4-11 cells = experiment: Annexin V staining (apoptosis) in MV4-11 cells; format: cell-based, human; conditions: combination (fixed ratio 4:1) versus agent alone, 48 hours
Source text: The ultimate goal of treatment for FLT3 related disorders is to kill the disease causative cells and to cause regression of disease. […] Annexin V binding to phosphotidyl serine that has translocated from the inner leaflet of the plasma membrane to the outer leaflet of the plasma membrane and is a well established way to measure apoptosis of cells. See van Engeland M., L. J. Nieland, et al. (1998) “Annexin V-affinity assay: a review on an apoptosis detection system based on phosphatidylserine exposure.” Cytometry. 31(1):1-9.
After the compound incubations, treated cells were harvested and stained with Annexin V-PE and 7-AAD using the Guava Nexin apoptosis kit according to the protocol in the Biological Activity Measurements section hereafter. Annexin V staining peaks at 60% because cells late in apoptosis begin to fall apart and are considered debris. […] Statistical analysis using the above described method of Chou and Talalay was also performed to determine the synergy of the combination. […] The magnitude of the synergistic induction of apoptosis of MV4-11 cells by the combination of an FTI and a FLT3 inhibitor could not be predicted by those skilled in the art. […]
Annexin V Staining. […] All annexin positive cells were considered apoptotic and percent Annexin positive cells was calculated.

MV4-11 tumor xenografts = experiment: MV4-11 human tumor xenograft regression model in nude mice; format: in vivo; conditions: 50 mg/kg bid oral
Description: Female athymic nude mice (CD-1, nu/nu, 9-10 weeks old) were obtained from Charles River Laboratories (Wilmington, Mass.) and were maintained according to NIH standards. All mice were group housed (5 mice/cage) under clean-room conditions in sterile micro-isolator cages on a 12-hour light/dark cycle in a room maintained at 21-22° C. and 40-50% humidity. Mice were fed irradiated standard rodent diet and water ad libitum. All animals were housed in a Laboratory Animal Medicine facility that is fully accredited by the American Association for Assessment and Accreditation of Laboratory Animal Care (AAALAC). […]
The time course of the inhibitory effects of FLT3 inhibitor compounds on the growth of MV4-11 tumors is illustrated in FIG. 1. […] Percent inhibition (% 1) of tumor growth was calculated versus tumor growth in the vehicle-treated Control group on the last study day. Statistical significance versus Control was determined by Analysis of Variance (ANOVA) followed by Dunnett's t-test: * p<0.05; ** p<0.01.
(See FIG. 2). […] Percent Inhibition was calculated versus the mean tumor weight in the vehicle-treated control group. Statistical significance versus Control was determined by ANOVA followed by Dunnett's t-test: ** p<0.01. […]

Cn1cncc1C(N)(c1ccc(Cl)cc1)c1ccc2c(c1)c(-c1cccc(Cl)c1)cc(=O)n2C (single isomer, unassigned; (+)) [Tipifarnib, (+)-6-[amino(4-chlorophenyl)(1-methyl-1H-imidazol-5-yl)methyl]-4-(3-chlorophenyl)-1-methyl-2(1H)-quinolinone]
shift of EC50 for the induction of annexin V staining (MV4-11 cells): more than eight-fold
effect on tumor growth as single agent (MV4-11 tumor xenografts; 9 days): ineffective
effect on tumor growth as single agent (MV4-11 tumor xenografts; 16 days): ineffective
